Key:
human neutrophils [1] = assay: Effect of signaling pathway inhibitors on directional neutrophil migration in IL-8 gradients (microfluidic device); assay type: cell-based
Source text: (§1) Microfluidic Migration Assay and Timelapse Microscopy: Neutrophils (1×10^3 cells) were placed uniformly across the migration channel and allowed to migrate under a linear gradient of human Interleukin-8 (72 a.a.; PeproTech, Rocky Hill, N.J.) in IMDM with 0.5% (w/v) FCS flowing at 0.1 mm/sec. […] Brightfield images were taken every 30 seconds using a C4742-95 Hamamatsu digital camera (Hamamatsu, Japan) controlled by IPLab 3.6.1 (Scanalytics, Fairfax, Va.). Cell movement was always observed at a set point along the migration channel. Gradients were also calibrated at this set point. Migration was quantified for all cells across the gradient.
Signaling Pathway Inhibitors: Cells were treated with pertussis toxin (100 ng/mL; 30 minutes at 37° C.), wortmannin (1 μM, 10 μM; 20 minutes at 37° C., 8-Br-cAMP (1 mM; 15 minutes at room temperature), 8-Br-cGMP (1 mM; 15 minutes at room temperature) (Sigma-Aldrich), or the CXCR2 non-peptide antagonist, SB225002 (1 pM, 100 pM, 1 nM, or 1 μM for 15 minutes at 37° C.; Calbiochem, Calif.). Immediately after treatment cells were seeded in migration channel of the microfluidic device and allowed to migrate as described above.
Since receptor occupancy is known to play a role in directional decision making and gradient sensing in the context of chemotaxing eukaryotic cells, it was postulated that chemokine receptor occupancy by a chemokine might also play a critical role in the decision of a cell to move up or down a chemokine gradient. Thus, a SB25002, the specific non-peptide antagonist of the IL-8 receptor, CXCR2 was utilized to examine this postulate. Neutrophils were pretreated with SB225002 at concentrations between 1 pM and 1 μM and then exposed to 0 to 1.2 μM gradients of IL-8 in microfabricated devices as described above. Videos of cell migration were analysed using MetaMorph and MathLab software to generate normalized angular frequencies determined for cells migrating in each of the three sectors of the gradient. The absence of inhibitor generates a normalized angular frequency of 1.0 whereas inhibition of fugetactic or chemotactic angular frequencies results in a normalized frequency of <1.0 and augmentation of either directional response results in a value greater than 1. This analysis allows to precisely quantitate the effect of a given concentration of inhibitor on the directional decision of the cell to move up or down a gradient. […] Furthermore, although IL-8 binds to both CXCR2 and CXCR1 on the cell surface, of the human neutrophil bi-directional signaling was evidently critically dependent on CXCR2.
It had been previously shown that the signaling pathway for chemotaxis is distinct from that for chemorepulsion or fugetaxis. […] The study of neutrophil migration in microfabricated devices allows to examine precisely the effects of these inhibitors on quantitative parameters of cell migration including the directional bias of cells in the context of precisely defined and stable chemokine gradients. Primary human neutrophils were pretreated with known inhibitors of the chemokine signal transduction pathway including pertussis toxin, wortmannin, genistein, 8-Br-cAMP and 8-Br-cGMP and then exposed to IL-8 gradients in which chemotaxis and fugetaxis were seen. The effect of the inhibitor on directional migration towards or away from the chemokine was quantitated by determining the directional motility index of cells migrating in the context of these gradients. Movement vector angles corresponding to movement up the gradient (30 to 150 degrees—see FIG. 13) were defined as chemotactic and measured movement vector angles corresponding to movement down the gradient (210 to 330 degrees—see figure) were defined as fugetactic. The directional choice of cells to move up or down a chemokine gradient were therefore compared in the presence and the absence of an inhibitor. […]

human neutrophils [2] = assay: Microfluidic migration assay of neutrophils in linear gradients of IL-8; assay type: cell-based
Protocol: Neutrophil isolation: Human whole blood was obtained from healthy volunteers by venipuncture into tubes containing sodium heparin (Becton Dickinson, San Jose, Calif.). Whole blood was centrifuged for 4 minutes at 2400 rpm and plasma was removed. Resulting pellet was resuspended in Iscove's Modified Dulbecco's Medium (IMDM; Cellgro MediaTech, Herndon, Va.) with 0.5% (w/v) fetal calf serum FCS; Cellgro MediaTech). 25 mL of suspension was layered over 10 mL Lymphocyte Separation Medium (ICN, Irvine, Calif.) and centrifuged for 40 minutes at 1600 rpm at 22° C. Supernatant was aspirated, resulting pellet was resuspended in IMDM with 0.5% (w/v) FCS and 2% (w/v) dextran (Sigma-Aldrich, St. Louis, Mo.), and red blood cells (RBC) were allowed to sediment for 30 minutes at room temperature. Supernatant was transferred into clean tube and centrifuged for 5 minutes at 2000 rpm. Supernatant was aspirated, pellet was mixed with cold ddH2O for hypotonic lysis of remaining RBCs, and transferred to IMDM with 0.5% (w/v) FCS. Isolated neutrophils were washed and resuspended in IMDM with 0.5% (w/v) FCS, determined to be 95% pure, and 99% viable by Trypan Blue exclusion.
Fabrication and Preparation of Microfluidic Linear Gradient Generator: The microfluidic linear gradient generator was fabricated in poly(dimethylsiloxane) (PDMS; Sylgard 184, Dow Corning, N.Y.) using rapid prototyping and soft lithography as described previously. Briefly, a high resolution printer was used to generate a transparency mask from a computer-aided design image file. The mask was used in contact photolithography with SU-8 photoresist (Microlithography Chemical Co., Newton Mass.) to generate a positive relief of patterned photoresist on a silicon wafer. Replicas with embossed channels were fabricated by curing PDMS prepolymer against the patterned wafer. Inlet and outlet ports for media and cell suspension were bored out of the cured PDMS replica using a sharpened syringe needle. The PDMS replica and glass substrate were placed in an oxygen plasma generator (150 mTorr, 100 W) for 1 minute. Immediately following plasma treatment, the PDMS replica and glass were placed against each other and irreversibly bonded. Polyethylene tubing (Becton Dickenson) was inserted into inlet and outlet ports to make the fluidic connections. Tubing was connected to a PHD 2000 syringe pump (Harvard Apparatus, Holliston, Mass.) to complete the setup. Hemostats were used to control flow during cell loading.
as §1, with “[…];” for “cells) were placed uniformly across the migration channel and allowed to migrate under a linear gradient of human Interleukin-8 (72 a.a.;”
Construction of Digital Videos for Quantitative Analysis: Digital videos were mad from time-lapse video microscopy file stacks or S-VHS videotapes using a combination of IPLab 3.6.1, Photoshop 6.0 (Adobe Systems, San Jose, Calif.), and Apple QuickTime Pro 5.0 (Apple Computer, Cupertino, Calif.). Migration tracking was carried out using MetaMorph 4.5 (Universal Imaging, Downington, Pa.) object tracking application, which generated tables of Cartesian coordinate data for each tracked cell.
Mathematical Analysis of Cell Migration in Linear Gradient Generator: The angular correlation function, or cosine correlation function, was calculated for each experiment. For experiments with no gradient, the correlation function decayed exponentially with increasing time interval, while the function decayed much slower, potentially by a power law, for experiments with a gradient; in all cases correlation of angles over time was increased as absolute [IL-8] increased. […]

rat neutrophils = assay: Intravital microscopy of rat neutrophil migration in response to diffusive CINC-1 gradients in mesentery; assay type: in vivo
Protocol: Intravital Microscopy: Male Sprague Dawley rats (200-300 g) were purchased from Harlan-Olac (Bicester, U.K.). Male rats were prepared for intravital microscopy. Briefly, following sedation with i.m. Hypnorm (fentanyl-fluanisone mixture, 0.1 ml; Janssen-Cilag, High Wycombe, U.K.), animals were anesthetized with i.v. sodium pentobarbitone (30 mg/kg loading dose followed by 30 mg/kg/h; Rhône Mérieux, Harlow, U.K). The animals were maintained at 37° C. on a custom-built heated microscope stage. Following midline abdominal incision, the mesentery adjoining the terminal ileum was carefully arranged over a glass window in the microscope stage and pinned in position. The mesentery was kept warm and moist by continuous application of Tyrode's balanced salt solution (Sigma Aldrich). Mesenteric post-capillary venules (15-40 μm in diameter) were viewed on an upright fixed-stage microscope (Axioskop F S, Carl Zeiss, Welwyn Garden City, U.K.) fitted with water immersion objectives. Images were captured with a digital camera (C5810-01, Hamamatsu Photonics U.K., Enfield, U.K.) for viewing on a monitor (PVM-1453 MD, Sony U.K., Weybridge, U.K.) and storage by videocassette recorder (AG-MD830E, Panasonic U.K., Bracknell, U.K.). […] Firmly adherent leukocytes were defined as those that remained stationary for at least 30 s within a 100-μm segment of a venule. Extravasated leukocytes were defined as those in the perivenular tissue adjacent to, but remaining within a distance of 150 μm of a 100-μm length of vessel segment under study. After baseline readings of rolling, adhesion and transmigration were taken; CINC-1 at final concentrations of 10^−9 M, […] or 10^−7M (Peprotech) was applied topically to the mesenteric tissue in the superfusion buffer. Leukocyte responses within the chosen vessels were quantified for up to 180 minutes, during which the topical application of CINC-1 was maintained. In each animal, multiple vessel segments from appropriate vessels were quantified. Videos of migrating cells were constucted for quantitative and mathematical analysis as described above; at the end of certain in vivo experiments, the mesentery was stained with acridine orange (Sigma Aldrich), a nuclear dye, scanned with a 488 nm laser line generated from an Argon laser, and observed by confocal microscopy (LSM5 PASCAL, Axioskop II FS, Carl Zeiss) to verify that migrating cells were neutrophils.
Mathematical Modeling of Continuous Gradients in vivo: The chemokine concentration profile in the mesentery at steady state was predicted using a novel in vivo model based on classical diffusion equations applied on a spherical model of the postcapillary venule, and the assumption that the receptor-dependent transport of the chemokine by the endothelial cells is the main mechanism for generating the gradient the vicinity of postcapillary venules. The steady state solution was calculated for the concentration gradient around a sphere in a homogenous medium, with the two boundary conditions: 1) the concentration far from the sphere is constant, and 2) the chemokine flux across the surface of the sphere also constant. […] Thus, the steady state concentration C at distance r from the capillary wall was calculated as: [formula] […]

[3] = pretreated cells, IL-8 gradients in which chemotaxis and fugetaxis were seen

## O=C(Nc1ccc([N+](=O)[O-])cc1O)Nc1ccccc1Br [SB225002]
Human neutrophils [1]; 1 pM and 100 pM inhibitor, 0 to 1.2 μM gradient of IL-8
  effect on neutrophil chemotaxis (normalized angular frequency): augmented
Human neutrophils [1]; 1 pM inhibitor, 0 to 1.2 μM gradient of IL-8, p=0.0037
  effect on neutrophil fugetaxis (normalized angular frequency): significant inhibition
Human neutrophils [1]; 100 pM inhibitor, 0 to 1.2 μM gradient of IL-8, p=0.0210
  effect on neutrophil fugetaxis (normalized angular frequency): significant inhibition
Human neutrophils [1]; gradually increasing concentrations (up to 1 μM), 0 to 1.2 μM gradient of IL-8
  effect on neutrophil directional migration: inhibited both fugetaxis and chemotaxis

## IL-8: human Interleukin-8 (72 a.a.; PeproTech), chemokine
Human neutrophils [2]; IL-8 gradient in which chemotaxis is seen predominantly
  Persistence time of cell movement: 21.5 min
Human neutrophils [2]; IL-8 gradient in which fugetaxis is seen predominantly
  Persistence time of cell movement: 10.9 min
Human neutrophils [2]; chemokine at a uniform concentration across the migration channel
  neutrophil migratory behaviour: underwent chemokinesis
Human neutrophils [2]; gradient between 0 and 12 nM
  mean chemotropism index (MCI): +0.32
Human neutrophils [2]; gradient between 0 and 120 nM
  mean chemotropism index (MCI): +0.39
Human neutrophils [2]; gradient of 0 to 1.2 μM
  mean chemotropism index (MCI): −0.13
Human neutrophils [2]; gradient of 0 to 1.2, cells commencing in the central third of the gradient
  neutrophil migratory behaviour: underwent chemokinesis
Human neutrophils [2]; gradient of 0 to 1.2, cells in the lower third of the gradient
  neutrophil migratory behaviour: chemotaxed towards higher levels of the chemokine
Human neutrophils [2]; gradient of 0 to 1.2, cells originating in the upper third of the gradient
  neutrophil migratory behaviour: underwent fugetaxis down the gradient
Human neutrophils [2]; gradients between 0 and 12 nM and 0 and 120 nM
  neutrophil migratory behaviour: predominantly demonstrated chemotaxis
Human neutrophils [2]; lower segment of the 0 to 10.2 μM gradient
  mean sectional MCI: +0.2
Human neutrophils [2]; middle third of the 0 to 10.2 μM gradient
  mean sectional MCI: −0.14
Human neutrophils [2]; steepest gradient, 0 to 2.4 μM
  neutrophil migratory behaviour: underwent chemokinesis regardless of their position within the gradient
Human neutrophils [2]; uniform concentration of IL-8 (chemokinesis)
  Persistence time of cell movement: 4.5 min
Human neutrophils [2]; uniform concentration of chemokine at 120 nM
  mean chemotropism index (MCI): −0.02 +/−0.01
Human neutrophils [2]; upper third of the 0 to 10.2 μM gradient
  mean sectional MCI: −0.22

## pertussis toxin
Human neutrophils [1]; [3]
  effect on neutrophil chemotaxis (angular frequency, movement up the gradient): significantly inhibited
  effect on neutrophil fugetaxis (angular frequency, movement down the gradient): significantly inhibited

B1: CINC-1: rat IL-8 orthologue, cytokine induced neutrophil chemoattractant-1, signals via CXCR2 (protein, UniProt P14095 25-96, looked up)
Growth-regulated alpha protein: APVANELRCQCLQTVAGIHFKNIQSLKVMPPGPHCTQTEVIATLKNGREACLDPEAPMVQKIVQKMLKGVPK
Rat neutrophils; 1 nM
  neutrophil response to superfused chemokine: minimal neutrophil adhesion to the luminal surface of the venule and transmigration
Rat neutrophils; 100 nM
  neutrophil response to superfused chemokine: accumulation of neutrophils around the vessel without transmigration
Rat neutrophils; diffusive gradient with peak concentration of 10 nM
  mean chemotropism index (MCI) in vivo: +0.32+/−0.06
Rat neutrophils; gradient replaced with peak concentration of 100 nM
  mean chemotropism index (MCI) in vivo: −0.35+/−0.12
Rat neutrophils; superfusion at 1 nM, 10 nM or 100 nM for 90 minutes
  peak chemokine concentration at which peak transendothelial migration of neutrophils from the blood occurred: 10 nM
